The source of these data is publication PMC9304170, “Chloromethyl Glycosides as Versatile Synthons to Prepare Glycosyloxymethyl‐Prodrugs” (Chemistry (Weinheim an Der Bergstrasse, Germany), 2022).

Data set [1] has as its target T1, Abg (Agrobacterium Sp. β-glucosidase) (Agrobacterium sp., UniProt P12614).
T1 sequence (P12614 1-459): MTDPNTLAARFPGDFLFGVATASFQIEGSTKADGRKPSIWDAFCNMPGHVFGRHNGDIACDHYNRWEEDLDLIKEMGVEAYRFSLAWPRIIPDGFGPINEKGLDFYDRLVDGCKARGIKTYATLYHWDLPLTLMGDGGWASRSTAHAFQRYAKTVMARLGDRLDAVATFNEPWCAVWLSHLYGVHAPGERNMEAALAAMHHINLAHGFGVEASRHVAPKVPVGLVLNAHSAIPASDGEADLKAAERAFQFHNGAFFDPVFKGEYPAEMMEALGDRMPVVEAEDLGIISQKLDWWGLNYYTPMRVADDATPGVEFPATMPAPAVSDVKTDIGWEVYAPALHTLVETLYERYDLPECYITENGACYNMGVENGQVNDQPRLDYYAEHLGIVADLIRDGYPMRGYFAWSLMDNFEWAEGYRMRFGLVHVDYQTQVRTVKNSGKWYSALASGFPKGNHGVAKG
As to the kind of experiment: Enzymatic hydrolysis at 13 mM studied by quantitative 1H NMR. Format: biochemical. To be noted: 13 mM substrate in D2O, maleate buffer pD 6.5, Abg 1.6 U/mL, 37 °C.

Data set [2] deals with T2, Agrobacterium Sp. β-glucosidase (Abg, GH1 family) (Agrobacterium sp., UniProt P12614).
T2 sequence (P12614 1-459): T1 sequence (P12614 1-459)
As to the kind of experiment: Michaelis-Menten kinetics of enzymatic hydrolysis, release of 4-nitrophenol (absorbance at 405 nm). The format is biochemical. To be noted: transglycosylation suggested for rate enhancement. How it is done:
Enzymatic reactions were performed in triplo at pH 6.8 (50 mM final concentration) containing 0.1 % bovine serum albumin at 37 °C.[25] Aliquots of 100 μL were taken at constant time periods and added to 100 μL aq. NaOH (0.1 M) in a 96‐well microtitre plate to quench the enzymatic reaction and ensure maximal absorption of sodium 4‐nitrophenolate as outlined in previous studies.[28] The initial rate (vo) was determined normalized on the ∼0.1 U/mL enzyme concentration and plotted against substrate concentration [S]. Non‐linear regression analysis based on 7–10 concentrations depending on the glycoside, was used to determine the Km and k cat values. k cat values were normalized based on the enzyme concentration. […]
Kinetic evaluation of 4- nitrophenyloxymethyl glycosides. Enzyme reactions were performed in triplicate. Substrate samples (final volume of 1 mL) were prepared by diluting carefully prepared substrate stock solutions with sodium phosphate buffer pH 6.8 (50 mM final concentration) containing 0.1% bovine serum albumin and milliQ to the desired concentration. The samples were equilibrated at 37 °C for at least 5 minutes before the enzyme in 50 mM buffer (2 U per ml, 50 uL) was added. Aliquots of 100 µL were taken at constant time periods and added to 100 µL aq. NaOH (0.1 M) in a 96 well microtiter plate to quench the enzymatic reaction. The absorbance was measured at 405 nm using a Tecan Spark M10 plate reader.
Negative assay controls contained no substrate or no enzyme. Rates of the enzymatic reactions were determined at 7 different substrate concentrations from 0.02 – 1.0 mM. Km and kcat values were determined by nonlinear regression analysis using Graphpad 5.0 (GraphPad Software, San Diego, California USA, www.graphpad.com) for fitting the data. Calibration samples at varying concentration (0.05 – 0.5 mM) were prepared similar to the substrate samples in the enzyme reactions by diluting a carefully prepared 4-nitrophenol stock solution with sodium phosphate buffer pH 6.8 (50 mM final concentration) containing 0.1% bovine serum albumin and milliQ to the desired concentration. […]
(T1 determined as 9.13 sec.) was used. Dynamic measurements were started by heating the sample in the NMR to 37 °C and recording a t0-spectrum. Subsequently Abg (V = 2.05 uL, 0.82 U, 1.64 U/mL) was added to the sample outside of the NMR. The sample was mixed by shaking and quickly reintroduced to the NMR.
The time of enzyme addition was recorded as t0. Spectra were recorded over an appropriate time- scale with the relaxation delay at 3*T1 of the internal standard.
In vivo experiments were performed at the company Charles Rivers (Den Bosch, The Netherlands) in accordance with Dutch law of animal experiments and under approval of the central committee of animal experiments (CCD). Relative and absolute bioavailability may be determined in different animal models and according to different protocols.
The following protocol is typical for determining bioavailability in female Beagle dogs. The animals were deprived from food over a time period of 8 h prior to administration and 2 h after administration of the test molecules. Water was supplied without limitation. On the study day, the animals received test molecule 10h […]
ethanol and 0.9% NaCl + 5% mannitol in water. Blood samples were collected from the jugular vein on the […]

Data set [3] concerns the target T1, Abg (Agrobacterium Sp. β-glucosidase). As to the kind of experiment: Enzymatic conversion of glycoside-drug conjugates at 200 μM analyzed by HPLC. To be noted: 37 °C; for Product release: 200 μM substrate, 50 mM phosphate buffer pH 6.8, Abg 0.1 U/mL. Format: biochemical.
Data set [4] is described as follows: pH stability test and stability in formulation. Format: physicochemical. The method, then: In vivo experiments. […] To investigate the chemical stability towards conditions in the gastrointestinal tract, we performed pH stability test. […] The pharmacokinetic profile of 10 h was studied in a dog‐animal model (adult beagle).
Data set [5] in a line: In vivo pharmacokinetics study after oral gavage, losartan in blood by LC-MS-MS. Further details: species or system female Beagle dogs. To be noted: 15 μmol/kg oral gavage, Beagle dog; for Intact conjugate in the blood circulation: LC-MS-MS.
A short description of data set [6]: Control experiments without enzyme (stability in assay buffer). Format: physicochemical. To be noted: 200 μM, 50 mM phosphate buffer pH 6.8, 37 °C, HPLC.

“And” between values parts separate entries of the source, which are not always exact repeats. Equal values may be shown once.

Consider `O=[N+]([O-])c1ccc(OCO[C@@H]2O[C@H](CO)[C@@H](O)[C@H](O)[C@H]2O)cc1` [5 a, 4‐nitrophenyloxymethyl glucoside], for which the “Release of 4-nitrophenol followed by 1H NMR (in words)” value in data set [1] is “showed release of 4‐nitrophenol”.

For the compound `O=[N+]([O-])c1ccc(O[C@@H]2O[C@H](CO)[C@@H](O)[C@H](O)[C@H]2O)cc1` [6 a, reference compound], the “V0 at high substrate concentration (in words)” value in data set [2] is “followed a horizontal asymptote”. Besides, the “Release of 4-nitrophenol followed by 1H NMR (in words)” value in data set [1] is “release of 4‐nitrophenol”.

For `CCCCc1nc(Cl)c(CO)n1Cc1ccc(-c2ccccc2-c2nnnn2CO[C@@H]2O[C@H](CO)[C@@H](O)[C@H](O)[C@H]2O)cc1` [10 h], in data set [3] (200 μM, HPLC, in presence of 5 % ethanol), the “Enzymatic hydrolysis by Abg (in words)” value was “hydrolyzed efficiently”. In addition, the Product release worked out at 29.3±0.24% in data set [3] (0.5 h, in presence of 5 % ethanol); 50.4±0.4% in data set [3] (1.0 h, in presence of 5 % ethanol); 77.2±0.7% in data set [3] (2.0 h, in presence of 5 % ethanol). Besides, the Stability in formulation result in data set [4] (formulation for oral gavage) was “stable in formulation”. Further, the “Chemical stability under acidic conditions” value in data set [4] (pH 1–2) was “stable for 16 h”. Besides, the “Release of the parent drug under acidic conditions” value in data set [4] (pH 1–2, 16 h) is given as “did not show any release of the parent drug”. Besides, in data set [5], the “Maximum concentration (Cmax) of losartan versus dosing of parent (in words)” value was “higher”. Moreover, the “Intact conjugate in the blood circulation” value is on record as “no intact conjugate was detected” in data set [5] and “no conjugate was detected” in data set [5] (listed as 19).

In the case of `O=c1[nH]c(=O)n(CO[C@@H]2O[C@H](CO)[C@@H](O)[C@H](O)[C@H]2O)cc1F` [10 f], the Product release was 46% and 45.8±5.2% in data set [3] (0.5 h); 65.2±1.5% in data set [3] (1.0 h); 77.8±9.7% in data set [3] (2.0 h). Further, the “Degradation in the control experiment (without enzyme)” value in data set [6] is on record as “no degradation was observed”.
